pKi: −log10 of the molar value.
What follows are compounds tested against T1, Prostaglandin D2 receptor 2 (Homo sapiens, UniProt Q9Y5Y4) (assay: Binding affinity to human CRTh2 assessed by competitive binding assay).
T1 sequence (Q9Y5Y4 whole entry): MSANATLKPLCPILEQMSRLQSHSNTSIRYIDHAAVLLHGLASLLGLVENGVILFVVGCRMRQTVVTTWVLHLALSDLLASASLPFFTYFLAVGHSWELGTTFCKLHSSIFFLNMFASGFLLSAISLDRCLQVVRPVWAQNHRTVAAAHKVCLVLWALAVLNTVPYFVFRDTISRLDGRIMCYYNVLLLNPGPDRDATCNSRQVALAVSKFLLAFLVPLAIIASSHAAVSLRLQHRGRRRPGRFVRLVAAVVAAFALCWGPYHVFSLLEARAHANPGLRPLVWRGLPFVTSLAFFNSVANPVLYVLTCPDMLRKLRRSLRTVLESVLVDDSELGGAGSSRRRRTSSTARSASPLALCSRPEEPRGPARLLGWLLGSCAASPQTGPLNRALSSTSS
Compound `C[C@@H]1CN(c2ccc(F)cc2)CCN1C(=O)c1ccc2c(=O)n(-c3ccc(F)cc3)c(CCCCC(=O)O)cc2c1` has a pKi of 7.62.
For `C[C@@H](NC(=O)c1ccc2c(=O)n(-c3ccc(C#N)cc3)c(CCCCC(=O)O)cc2c1)c1ccc(F)cc1`, the pKi was 8.04.
Compound `C[C@@H](NC(=O)c1ccc2c(=O)n(-c3ccc(F)cc3)c(CCCCC(=O)O)cc2c1)c1ccc(F)cc1` has a pKi of 8.23.
Work on `COc1ccc(-n2c(CCCCC(=O)O)cc3cc(C(=O)N[C@H](C)c4ccc(F)cc4)ccc3c2=O)cc1` yielded a pKi of 8.07.
`O=C(O)CCCCc1cc2cc(C(=O)Nc3noc(Cc4ccc(F)cc4)n3)ccc2c(=O)n1-c1ccc(F)cc1` was tested, and the pKi was 8.11.
In the case of `CC1(c2nc3ccc(F)cc3o2)CC(NC(=O)c2ccc3c(=O)n(-c4ccc(F)cc4)c(CCCCC(=O)O)cc3c2)=NO1` (stereo not drawn), the pKi was 7.59.
In the case of `CC(c1ccc(F)cc1)c1nc(NC(=O)c2ccc3c(=O)n(-c4ccc(F)cc4)c(CCCCC(=O)O)cc3c2)no1` (stereo not drawn), the pKi was 7.89.
Compound `C[C@@H](NC(=O)c1ccc2c(=O)[nH]c(CCCCC(=O)O)cc2c1)c1ccc(F)cc1` has a pKi of 6.15.
`O=C(O)CCCCc1cc2cc(C(=O)Nc3cc(Cc4ccc(F)cc4)on3)ccc2c(=O)n1-c1ccc(F)cc1` gave a pKi of 7.96.
For `O=C(O)CCCCc1cc2cc(C(=O)Nc3noc(C4Cc5ccccc5C4)n3)ccc2c(=O)n1-c1ccc(F)cc1`, the pKi was 7.66.

Each compound was assayed against T1, Prostaglandin D2 receptor 2 (assay: Antagonist activity at CRTh2 (unknown origin) assessed as inhibition of CD11b activation).
Assay type: functional
`O=C(O)CCCCc1cc2cc(C(=O)N[C@@H]3CCCc4cc(F)ccc43)ccc2c(=O)n1-c1ccc(F)cc1` showed a pKi of 8.88.
`O=C(O)CCCCc1cc2cc(C(=O)N[C@@H]3CCCc4ccccc43)ccc2c(=O)n1-c1ccc(F)cc1` was tested, and the pKi was 9.40.
`C[C@@H](NC(=O)c1ccc2c(=O)n(-c3ccc(F)cc3)c(CCCCC(=O)O)cc2c1)c1ccc(F)cc1` gave a pKi of 9.64.

Reference: ChEMBL document CHEMBL4177675, “The synthesis of 2,3,6-trisubstituted 1-oxo-1,2-dihydroisoquinolines as potent CRTh2 antagonists” (Bioorg Med Chem Lett, 2017)
